Key:
[1] = tested on: HIV-1 (HTLV IIIB)-induced cytopathic effect in MT4-cells; test: Cellular assay: inhibition of HIV-1-induced cytopathic effect in MT4-cells (MTT); assay type: cell-based; conditions: Human immunodeficiency virus 1, read-out: IC50 in the cellular assay (virus-inhibitory concentration)
Protocol: Inhibition of the HIV-1 (HTLV IIIB)-induced cytopathic effect is measured in MT4-cells as described in the literature (R. Pauwels et al, J. Virol. Meth. 20 309-321 [1988]). Briefly, an HTLV-1 transformed T4 cell line, MT4, which has been shown previously to be highly permissive to HIV infection, serves as a target cell line. Inhibition of HIV-induced cytopathic effect is used as the end point. The viability of both HIV- and mock-infected cells is assessed spectrophotometrically via the in situ-reduction of 3-(4,5-dimethylthiazol-2-yl)-2,5-diphenyltetrazolium bromide (MTT). The comparison of the effects of various concentrations of the agent on HIV- versus mock-infected cells allows the determination of cytotoxic (TC50) and virus-inhibitory (IC50) concentrations.

cathepsin D = cathepsin D (Homo sapiens, UniProt P07339); test: Inhibition of cathepsin D (specificity); assay type: biochemical
[2] = biological target: T1, recombinant HIV-2-proteinase (Human immunodeficiency virus type 2 subtype A, UniProt P04584); test: Assay of peptide cleavage by HIV-proteinase (HIV-2); assay type: biochemical; conditions: substrate H-Lys-Ala-Arg-Val-Leu-Nph-Glu-Ala-Nle-NH2
T1 construct: recombinant HIV-1- and HIV-2-proteinase
Protocol: (§1) 1. Assay of peptide cleavage by HIV-proteinase
(§2) Inhibition of HIV-proteinase is measured as described in the literature: A. Richards et al., J. Biol. Chem. 265, 773-7736 (1990) and L. H. Philip et al., Biochem. Biophys. Res. Comun. 171,439-444 (1990). Briefly the peptide H-Lys-Ala-Arg-Val-Leu-Nph-Glu- Ala-Nle-NH2 (where Nph is p-nitrophenylalanine and Nle is norleucine) is used as substrate for recombinant HIV-1- and HIV-2-proteinase. Cleavage occurs between the Leu and Nph residues. The reaction is followed spectrophotometrically by the decrease in extinction at 300 nm which is observed upon cleavage.

renin = biological target: T2, renin (Homo sapiens, UniProt P00797); test: Inhibition of renin (specificity); assay type: biochemical
T2 sequence (P00797 67-406): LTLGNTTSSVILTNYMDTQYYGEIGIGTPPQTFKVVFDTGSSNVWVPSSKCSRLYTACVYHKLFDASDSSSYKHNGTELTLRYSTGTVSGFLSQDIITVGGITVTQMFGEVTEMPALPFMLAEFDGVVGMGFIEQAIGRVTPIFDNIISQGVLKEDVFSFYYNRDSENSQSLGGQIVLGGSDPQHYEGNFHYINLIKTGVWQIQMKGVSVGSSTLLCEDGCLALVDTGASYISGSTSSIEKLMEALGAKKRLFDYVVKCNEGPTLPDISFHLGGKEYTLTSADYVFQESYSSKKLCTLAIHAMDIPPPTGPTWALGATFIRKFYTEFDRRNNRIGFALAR

[3] = Assay of oral bioavailability in mice; set-up: species or system Female Balb/c mice; conditions: mouse, in vivo
Protocol: As is known from the literature, peptide based drugs characteristically show poor oral bioavailability. Since with HIV patients long term medication with proteinase inhibitors is anticipated, it is important that a useful drug be orally bioavailable. This is one of the main obstacles in the development of effective drugs in this peptidic structural class. […] This can be shown e.g. in the following test:
For peroral administration, a solution of the test substance (25 mg/ml) in a suitable solvent such as Cremophor RH40^R /Maisine^R /propylene glycol / ethanol (38/32/15/15) is prepared. Female Balb/c mice are fasted for 24 hours prior to the start, and throughout the experiment water is given ad libitum. At various times following drug administration, blood samples are obtained by sacrificing animals under anaesthesia by cutting the vena jugularis, followed by cervical dislocation. Samples are collected in heparinized tubes (typically 0.4-0.6 ml). For sample analysis solid phase extraction and HPLC are used. Drug concentration in the samples is calculated by least-squares linear regression analysis of the peak area ratio (inhibitor/internal standard) of spiked blood standards versus concentration. From the concentration versus time data, the "Area Under the Curve" (AUC) value is calculated by the trapezoidal rule.

[4] = biological target: recombinant HIV-1-proteinase (Human immunodeficiency virus type 1 group M subtype B, UniProt P04585); test: biochemical
Protocol: as §1, §2

cathepsin D, sequence (P07339 65-412): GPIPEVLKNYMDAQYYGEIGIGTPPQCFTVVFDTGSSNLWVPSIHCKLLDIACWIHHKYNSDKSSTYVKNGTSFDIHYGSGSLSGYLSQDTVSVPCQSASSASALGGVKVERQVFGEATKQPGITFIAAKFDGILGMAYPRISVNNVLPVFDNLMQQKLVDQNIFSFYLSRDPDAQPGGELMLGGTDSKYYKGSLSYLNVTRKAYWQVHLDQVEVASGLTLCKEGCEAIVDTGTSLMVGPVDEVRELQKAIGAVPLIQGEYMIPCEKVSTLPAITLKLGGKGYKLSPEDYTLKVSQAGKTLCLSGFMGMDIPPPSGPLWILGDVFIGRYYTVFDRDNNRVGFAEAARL
T1 sequence (P04584 514-612 limits assumed): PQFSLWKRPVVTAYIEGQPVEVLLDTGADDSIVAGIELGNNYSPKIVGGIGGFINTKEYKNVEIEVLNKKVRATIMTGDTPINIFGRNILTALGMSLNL

For `COc1ccc(CNC(C(=O)NC2c3ccccc3CC2O)C(O)C(Cc2ccccc2)NC(=O)C(NC(=O)OCc2ccccc2)C(C)(C)C)cc1` [Example 2, 4(S)-(Benzyloxycarbonyl-L-tert-leucinoy)amino-3(S)-hydroxy-2(R)-(4-methoxybenzylamino)-5-phenyl-pentanoic acid 1 (S)-amino-2(R)-hydroxyindan-amide], the IC50 [1] was 250 nM, the “inhibition of endogenous proteinase cathepsin D” value (cathepsin D) was “does not inhibit” and the Ki [2] was 50 nM. The “inhibition of endogenous proteinase renin” value (renin) was “does not inhibit”, the oral uptake [3] was “excellent oral uptake” and the Ki [4] was 9.5 nM.

From patent publication US5538997A, “2,4-diamino-3-hydroxycarboxylic acid derivatives” (Sandoz Ltd., priority 1993, dated 1996)
